{"source": "patent US20260198495A1", "about": "“BINARY INSECTICIDE COMPOSITION AND USE THEREOF” (SHENYANG SINOCHEM AGROCHEMICALS R & D CO., LTD., priority 2022, published 2026)", "format_in_all_cases": "in vivo", "key": {"[1]": {"system": "2nd-instar larvae of Plutella xylostella", "assay": "Synergism screening (Bliss) of I-72 + insect attractants and insecticides, Example 49, Table 49", "settings": "Plutella xylostella; single pesticide, 0.1 mg/L; 72 hours; read-out: Measured mortality rate", "procedure": "(§1) Test target: 2nd-instar larvae of Plutella xylostella.\n(§2) Preparation of the pesticide solution: according to different test requirements, the test samples were accurately weighed respectively with an electronic analytical balance. The technical pesticides were dissolved in acetone, and then diluted with 0.1% Tween 80 water into a series of pesticide solutions with a certain concentration gradient according to the experimental design dosage.\n(§3) Experimental method: first, cabbage leaves were selected and dipped in the prepared pesticide solution for 10 s in the order from low dosage to high dosage according to the experimental design. After natural air-drying in the shade, they were placed in a 9-cm-diameter Petri dish with filter paper, and uniform and healthy test insects were introduced, with 10 insects for each treatment and 3 replicates for each treatment. In addition, a blank control CK was set up.\nThe treated test materials were placed in an observation room, and the temperature, humidity and illumination of the observation room could be adjusted as needed. The number of dead and alive insects was investigated 72 hours later, and the corrected mortality rate was calculated using the Abbott's formula.\nThe synergism of the mixture was evaluated by adopting the Bliss method, as in Example 5."}, "[2]": {"system": "second-instar larvae of Meloidogyne incognita", "assay": "In vitro joint toxicity of I-72 + fluopyram, 24-well plate, Example 32, Table 32", "settings": "A = I-72, B = fluopyram, 24-well plate, 25° C., 48 hours, read-out: LC50", "procedure": "Test target: second-instar larvae of Meloidogyne incognita, a sensitive strain reared in a greenhouse.\nas §2\nExperimental method: the prepared pesticide solutions were added to a 24-well plate in the order from low dosage to high dosage according to the experimental design. In each well of each treatment, 50 nematodes were placed. Each drug had 5 concentrations set, with 3 replicates. After the treatment, the 24-well plate was placed in a constant temperature incubator at 25° C. In addition, a blank control group was set up. The number of dead and live insects was investigated 48 hours later. […] Then, the co-toxicity coefficient of each ratio was calculated using the Sun Y-P method to evaluate the mixing effect (the same as in Example 1)."}, "[3]": {"system": "Bemisia tabaci (Gennadius) nymphs", "assay": "Joint toxicity of I-72 + organophosphorus insecticides, cotton leaf-disk spraying, Example 18, Table 18", "settings": "nymphs, cotton leaf-disk spraying, 96 h, A = compound I-72, B = acephate, read-out: LC50", "procedure": "Test target: Bemisia tabaci (Gennadius) nymphs.\nas §2\nExperimental method: first, cotton leaves with neat and consistent Bemisia tabaci (Gennadius) nymphs were selected and made into leaf disks, with about 20 insects on each leaf disk. Then, they were evenly sprayed with the pesticide solution in the order from low dosage to high dosage according to the experimental design, with 1.5 mL for each leaf and 3 replicates for each treatment. In addition, a blank control was set up.\nThe treated test materials were placed in an observation room, and the temperature, humidity and illumination of the observation room could be adjusted as needed. The number of dead and live insects was investigated 96 hours later. The corrected mortality rate was calculated using the Abbott's formula, and statistical analysis was performed with the DPS data processing software to obtain the toxicity regression equation, LC50 value and 95% confidence limit of each single test pesticide and each mixture of different ratios. Then, the co-toxicity coefficient of each ratio was calculated using the Sun Y-P method to evaluate the mixing effect (the same as in Example 1)."}, "[4]": {"system": "adult Tetranychus urticae Koch", "assay": "Joint toxicity of I-72 + spirobudifen, Example 29, Table 29", "settings": "A = compound I-72, B printed spirotetramat (title: spirobudifen), potted-seedling spraying, 72 hours, read-out: LC50", "procedure": "as §2\nIn addition, a blank control was set up.\nThe treated test materials were placed in an observation room, and the temperature, humidity and illumination of the observation room could be adjusted as needed."}, "[5]": {"system": "Myzus persicae (Sulzer) nymphs", "assay": "Joint toxicity of I-72 + fenvalerate, Example 46, Table 46", "settings": "A = compound I-72, B = fenvalerate, cabbage leaf spraying, 48 hours, read-out: LC50", "procedure": "Test target: Myzus persicae (Sulzer) nymphs, a sensitive strain reared indoors.\nas §2\nExperimental method: first, cabbage leaves with uniform and consistent Myzus persicae (Sulzer) were selected, with about 30-40 insects on each leaf. Then, they were evenly sprayed with the pesticide solution in the order from low dosage to high dosage according to the experimental design, with 1.5 mL of the solution for each leaf and 3 replicates for each treatment. In addition, a blank control was set up.\n(§4) The treated test materials were placed in an observation room, and the temperature, humidity and illumination of the observation room could be adjusted as needed. The number of dead and live insects was investigated 48 hours later. […] Then, the co-toxicity coefficient of each ratio was calculated using the Sun Y-P method to evaluate the mixing effect (the same as in Example 1)."}, "[6]": {"system": "Unaspis yanonensis Kuwana nymphs", "assay": "whole plant or invertebrate", "settings": "foliar, A = compound I-72, B = spirotetramat, citrus leaf dipping, 120 hours, read-out: LC50", "procedure": "Test target: Unaspis yanonensis Kuwana nymphs.\nas §2\nExperimental method: the activity of the mixture against Unaspis yanonensis Kuwana nymphs on citrus was determined by adopting the dipping method. First, the collected citrus leaves with Unaspis yanonensis Kuwana nymphs were treated with the pesticide solution in the order from low dosage to high dosage according to the experimental design. After air-drying, the petioles were kept moist with degreased cotton, and then the leaves were placed in a Petri dish, with 3 replicates for each treatment. In addition, a blank control was set up.\nThe treated test materials were placed in an observation room, and the temperature, humidity and illumination of the observation room could be adjusted as needed. The number of dead and live insects was investigated 120 hours later."}, "[7]": {"system": "2nd-instar larvae of Plutella xylostella", "assay": "Joint toxicity of I-72 + spiropidion, Example 31, Table 31", "settings": "Plutella xylostella, foliar; A = compound I-72, B = spiropidion; cabbage leaf dipping; 72 hours; read-out: LC50", "procedure": "as §1, §2\nas §3, with “control” for “control CK”\nas §4, with “72” for “48”"}}}
{"smiles": "CN(C(=O)c1ccc2c(c1)OC(F)(F)O2)c1cccc(C(=O)Nc2c(Br)cc(C(F)(C(F)(F)F)C(F)(F)F)cc2OC(F)F)c1F", "note": "[Compound I-72]", "values": [{"measurement": "mortality at 0.1 µg/mL", "setting": "[1]", "value": 46.9, "unit": "%"}, {"measurement": "LC50", "setting": "[2]", "value": 249, "unit": "µg/mL"}, {"measurement": "LC50", "setting": "[3]", "value": 5.05, "unit": "µg/mL"}, {"measurement": "LC50", "setting": "[4]", "value": 41.6, "unit": "µg/mL"}, {"measurement": "LC50", "setting": "[5]", "value": 8.2, "unit": "µg/mL"}, {"measurement": "LC50", "setting": "[6]", "value": 75.2, "unit": "µg/mL"}, {"measurement": "LC50", "setting": "[7]", "value": 0.0876, "unit": "µg/mL"}]}
